Literature values in patent publication US7144857B2 (priority 2004, dated 2006).

System: sternal wound infections
Settings: 416 patients, randomized to topical vancomycin; p=0.02

Compound: CN[C@H](CC(C)C)C(=O)N[C@H]1C(=O)N[C@@H](CC(N)=O)C(=O)N[C@H]2C(=O)N[C@H]3C(=O)N[C@H](C(=O)N[C@H](C(=O)O)c4cc(O)cc(O)c4-c4cc3ccc4O)[C@H](O)c3ccc(c(Cl)c3)Oc3cc2cc(c3O[C@@H]2O[C@H](CO)[C@@H](O)[C@H](O)[C@H]2O[C@H]2C[C@](C)(N)[C@H](O)[C@H](C)O2)Oc2ccc(cc2Cl)[C@H]1O [topical vancomycin, vancomycin]
- decrease of the rate of sternal infection: 7 factor
